Results reported in PubChem BioAssay (NCI).
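Where inhibition never reached the appropriate level, the endpoint shown equals the highest concentration tested. Otherwise, values were interpolated linearly from a five-concentration, 48-hour dose response in 96-well plates. TGI: total growth inhibition.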

What was measured:
Test in all cases: growth of human tumour cells (NCI), 48 h
[1] = test system: HCT-116 colon
[2] = test system: SW-620 colon
[3] = test system: UACC-257 melanoma
[4] = test system: OVCAR-3 ovarian
[5] = test system: 786-0 renal
[6] = test system: KM12 colon
[7] = test system: UO-31 renal
[8] = test system: HCC-2998 colon
[9] = test system: SK-MEL-2 melanoma
[10] = test system: SNB-19 CNS
[11] = test system: CCRF-CEM leukemia
[12] = test system: KM20L2 colon
[13] = test system: RPMI-8226 leukemia
[14] = test system: DLD-1 colon
[15] = test system: HT29 colon
[16] = test system: A549 NSCLC
[17] = test system: TK-10 renal
[18] = test system: SK-MEL-28 melanoma
[19] = test system: NCI-H522 lung
[20] = test system: RXF 393 renal
[21] = test system: ACHN renal
[22] = test system: SF-295 CNS
[23] = test system: EKVX NSCLC
[24] = test system: HOP-62 NSCLC
[25] = test system: M19-MEL melanoma
[26] = test system: OVCAR-4 ovarian
[27] = test system: UACC-62 melanoma
[28] = test system: OVCAR-5 ovarian
[29] = test system: SK-MEL-5 melanoma
[30] = test system: DMS 114 small cell lung
[31] = test system: NCI-H23 lung
[32] = test system: HL-60(TB) leukemia
[33] = test system: IGROV1 ovarian
[34] = test system: SK-OV-3 ovarian
[35] = test system: A498 renal
[36] = test system: SF-539 CNS
[37] = test system: OVCAR-8 ovarian
[38] = test system: MALME-3M melanoma
[39] = test system: MOLT-4 leukemia
[40] = test system: SR leukemia
[41] = test system: COLO 205 colon
[42] = test system: K-562 leukemia
[43] = test system: NCI-H460 lung
[44] = test system: SF-268 CNS
[45] = test system: SN12C renal
[46] = test system: BT-549 breast
[47] = test system: NCI-H226 lung
[48] = test system: DU-145 prostate
[49] = test system: CAKI-1 renal
[50] = test system: NCI/ADR-RES ovarian
[51] = test system: MDA-MB-231 breast
[52] = test system: PC-3 prostate
[53] = test system: SNB-75 CNS
[54] = test system: MDA-MB-435
[55] = test system: T-47D breast
[56] = test system: HS 578T breast
[57] = test system: MCF7 breast
[58] = test system: M14 melanoma
[59] = test system: U251 CNS
[60] = test system: HOP-92 NSCLC
[61] = test system: HCT-15 colon
[62] = test system: MDA-N
[63] = test system: LOX IMVI melanoma

C[N+](C)(C)CC(=O)N/N=C(/Cc1nc2ccc(Cl)cc2[nH]c1=O)C1=NS(=O)(=O)c2cc(S(N)(=O)=O)c(Cl)cc2N1
TGI [1]: > 100 µM | TGI [2]: > 100 µM | TGI [3]: > 100 µM | TGI [4]: > 100 µM | TGI [5]: > 100 µM | TGI [6]: > 100 µM | TGI [7]: > 100 µM | TGI [8]: > 100 µM | TGI [9]: > 100 µM | TGI [10]: > 100 µM | TGI [11]: > 100 µM | TGI [12]: > 100 µM | TGI [13]: > 100 µM | TGI [14]: > 100 µM | TGI [15]: > 100 µM | TGI [16]: > 100 µM | TGI [17]: > 100 µM | TGI [18]: > 100 µM | TGI [19]: > 100 µM | TGI [20]: > 100 µM | TGI [21]: > 100 µM | TGI [22]: > 100 µM | TGI [23]: > 100 µM | TGI [24]: > 100 µM | TGI [25]: > 100 µM | TGI [26]: > 100 µM | TGI [27]: > 100 µM | TGI [28]: > 100 µM | TGI [29]: > 100 µM | TGI [30]: > 100 µM | TGI [31]: > 100 µM | TGI [32]: > 100 µM | TGI [33]: > 100 µM | TGI [34]: > 100 µM | TGI [35]: > 100 µM | TGI [36]: > 100 µM | TGI [37]: > 100 µM | TGI [38]: > 100 µM | TGI [39]: > 100 µM | TGI [40]: > 100 µM | TGI [41]: > 100 µM | TGI [42]: > 100 µM | TGI [43]: > 100 µM | TGI [44]: > 100 µM | TGI [45]: > 100 µM

CCCCCCCCCCCCCCCCCCNc1ccn(C2OC(CO)C(OP(=O)(O)OCC(COP(=O)(O)OCC3OC(n4cc(F)c(NCCCCCCCCCCCCCCCCCC)nc4=O)CC3O)OC(=O)CCCCCCCCCCCCCCC)C2O)c(=O)n1 (stereo not drawn)
TGI [1]: > 100 µM | TGI [46]: > 100 µM | TGI [2]: > 100 µM | TGI [47]: > 100 µM | TGI [3]: > 100 µM | TGI [4]: > 100 µM | TGI [48]: > 100 µM | TGI [5]: > 100 µM | TGI [49]: > 100 µM | TGI [6]: > 100 µM | TGI [50]: > 100 µM | TGI [7]: > 100 µM | TGI [8]: > 100 µM | TGI [51]: > 100 µM | TGI [52]: > 100 µM | TGI [9]: > 100 µM | TGI [10]: > 100 µM | TGI [11]: > 100 µM | TGI [53]: > 100 µM | TGI [13]: > 100 µM | TGI [54]: > 100 µM | TGI [15]: > 100 µM | TGI [16]: > 100 µM | TGI [17]: > 100 µM | TGI [18]: > 100 µM | TGI [19]: > 100 µM | TGI [20]: > 100 µM | TGI [55]: > 100 µM | TGI [56]: > 100 µM | TGI [57]: > 100 µM | TGI [21]: > 100 µM | TGI [22]: > 100 µM | TGI [23]: > 100 µM | TGI [24]: > 100 µM | TGI [26]: > 100 µM | TGI [27]: > 100 µM | TGI [28]: > 100 µM | TGI [58]: > 100 µM | TGI [29]: > 100 µM | TGI [59]: > 100 µM | TGI [31]: > 100 µM | TGI [32]: > 100 µM | TGI [33]: > 100 µM | TGI [34]: > 100 µM | TGI [35]: > 100 µM | TGI [36]: > 100 µM | TGI [37]: > 100 µM | TGI [60]: > 100 µM | TGI [38]: > 100 µM | TGI [61]: > 100 µM | TGI [39]: > 100 µM | TGI [62]: > 100 µM | TGI [40]: > 100 µM | TGI [41]: > 100 µM | TGI [42]: > 100 µM | TGI [63]: > 100 µM | TGI [43]: > 100 µM | TGI [44]: > 100 µM | TGI [45]: > 100 µM

COc1ccc2nc3c([N+](=O)[O-])ccc4c3c(c2c1)N(CCCN(C)C)C(=S)N4CCCN(C)C
TGI [1]: 15.9 µM | TGI [46]: 30.8 µM | TGI [2]: 16.4 µM | TGI [47]: 22.4 µM | TGI [3]: 15.5 µM | TGI [4]: 21.2 µM | TGI [48]: 20.2 µM | TGI [5]: 15.7 µM | TGI [49]: 29.1 µM | TGI [6]: 10.2 µM | TGI [50]: 24.4 µM | TGI [7]: 25.9 µM | TGI [8]: 10.1 µM | TGI [51]: 22.6 µM | TGI [52]: 18 µM | TGI [9]: 34.2 µM | TGI [10]: 25.8 µM | TGI [11]: > 100 µM | TGI [53]: 29.3 µM | TGI [13]: 22.8 µM | TGI [54]: 19.1 µM | TGI [15]: 11.2 µM | TGI [16]: 22.2 µM | TGI [17]: 23.8 µM | TGI [18]: 37.4 µM | TGI [19]: 7.58 µM | TGI [20]: 22.9 µM | TGI [55]: 43 µM | TGI [56]: 31.1 µM | TGI [57]: 19.2 µM | TGI [21]: 17.9 µM | TGI [22]: 19.5 µM | TGI [23]: 31 µM | TGI [24]: 22.7 µM | TGI [26]: 70.7 µM | TGI [27]: 34.4 µM | TGI [28]: 34.6 µM | TGI [58]: 20.4 µM | TGI [29]: 12.3 µM | TGI [59]: 20.2 µM | TGI [31]: 30 µM | TGI [32]: > 100 µM | TGI [33]: 24.3 µM | TGI [34]: 34.4 µM | TGI [35]: 33.5 µM | TGI [36]: 22 µM | TGI [37]: 21.5 µM | TGI [60]: 21.3 µM | TGI [38]: 12.4 µM | TGI [61]: 28.7 µM | TGI [39]: > 100 µM | TGI [62]: 21.3 µM | TGI [40]: > 100 µM | TGI [41]: 6.01 µM | TGI [42]: > 40 µM | TGI [63]: 14.4 µM | TGI [43]: 9.75 µM | TGI [44]: 35.3 µM | TGI [45]: 19.2 µM
